Test results taken from patent US11339163B2, “BRaf inhibitors and use thereof for treatment of cutaneous reactions” (Lutris Pharma Ltd., priority 2017, dated 2022).
≈ marks a conversion by molar mass, not a printed value. Read-outs that look alike come from different tables or passages of the source.

Experiments:
[1] = tested on: BALB/c-3T3 mouse fibroblasts; assay: 3T3 neutral red uptake phototoxicity assay; assay type: cell-based; conditions: for IC50: Mus musculus, BALB/c3T3, light or radiation study
Protocol: Therefore, the compounds of the present disclosure were screened for phototoxicity using the 3T3 natural red uptake assay.
In brief, BALB/c-3T3 mouse fibroblasts (originally obtained from ATCC) were seeded in 96-well plates at 12,000 cells per well, and grown for 24 hr. Test compounds and the positive control (chlorpromazine) were solubilized and serially diluted in DMSO. The negative control (histidine) was solubilized and diluted in HBSS. A dilution for all test articles was then made into HBSS at the final testing concentrations. At the start of the assay, the growth medium was removed from the plates and replaced with test agent dilution. Six replicates were used for each concentration. Cells were incubated in the dark with test article for 1 h, exposed to UVA light (2.5 J/cm2 over 18 min) and incubated 24 hrs. in the dark. A parallel non-irradiated plate was treated similarly, except it was stored in the dark, rather than illuminated.
For Neutral Red staining, medium was removed and fresh medium containing 25 μg/mL of Neutral Red (Sigma) was added. After three hours incubation, the cells were washed with PBS, and the cellular dye was solubilized with 1% acetic acid in 50% ethanol. Cellular Neutral Red was measured by its absorbance at 540 nm.
Data analysis: An IC50 (concentration that causes 50% reduction in viability) was calculated for each condition by linear interpolation.
A Photo-Irritation Factor (PIF) was calculated: PIF=IC50(−Irr)/IC50(+Irr)
PIF>5 indicates phototoxicity; 2<PIF<5 indicates probable phototoxicity; PIF<2 indicates no phototoxicity
In addition, the Mean Photo Effect (MPE) was calculated by comparison of the complete concentration-response curves. MPE is a weighted average of the difference in response of equivalent doses normalized by the shift in IC50.
MPE>0.15 indicates phototoxicity; 0.1<MPE<0.15 indicates probable phototoxicity; MPE<0.1 indicates no phototoxicity.

[2] = tested on: ERK phosphorylation in HEKa cells; assay: phospho-ERK in HEKa cells following EGFR inhibitors (Western blot); assay type: cell-based, human
Protocol: Human normal keratinocyte cells HEKa were purchased from Gibco Rhenium and seeded in 10 cm dishes (300,000 cells/dish) and incubated overnight at 37° C., 5% CO2. Next morning, the medium was replaced to a starvation medium for 2 hours and then the cells were treated for 2 additional hours with the test compounds. Post incubation, the cells were lyzed with RIPA and the protein extracts were analyzed by western blot for Phospho-ERK and total ERK. Untreated cells and 0.1% DMSO treated cells were used as negative control. HKGS growth factors was used as a positive control.
Western blot: 7.5 μg of total extract was loaded on 10% acrylamide gel. Following transfer, the membranes were blocked with TBST/5% skimmed milk and then incubated with Mouse anti Phospho-ERK (1:1000 in TBST 5% BSA, ON at 4° C.) and goat anti Mouse HRP (1:10,000 in TBST 5% BSA, 1-hour RT). The membranes were exposed using SuperSignal West Pico Chemiluminescent Substrate.
The HRP was then inactivated by incubating the membranes for 1 hour with 0.5% sodium azide Following washes and ECL exposure in order to ensure absence of signal, the membranes were re-blocked for 15 min with TBST/5% skimmed milk and then incubated with Rabbit anti total ERK2 (1:500 in TBST 5% BSA, ON at 4° C.), goat anti Rabbit HRP (1:5,000 in TBST 5% BSA, 1-hour RT) and finally exposed using the SuperSignal West Pico Chemiluminescent Substrate. The films were scanned and the signal were quantified using ImageJ software. The results were calculated as Phospho-ERK/total ERK.
HKGS was used as a positive control.

[3] = MPE>0.15 phototoxicity, 0.1-0.15 probable, <0.1 none
[4] = non-irradiated, Neutral Red, read-out: Cell Viability IC50 Minus UVA
[5] = PIF=IC50(−Irr)/IC50(+Irr), >5 phototoxicity, 2-5 probable, <2 none

SMILES	Comment (photo-toxicity assessment) [1]	Mean MPE [1, 3]	IC50 [1, 4] [µg/mL]	Mean PIF [1, 5]	also measured
Cc1ccc2c(Nc3ccc(Cl)cc3)nccc2c1Nc1ncccc1-c1ncnc2[nH]cnc12 [Compound C-1]	Non				phototoxicity (3T3 NRU), stated in words [1]: did not show phototoxicity; IC50 ([1]; 0.3 h, read-out: Cell Viability IC50 Plus UVA): 18.1 µg/mL; IC50 ([1]; read-out: Cell Viability IC50 Minus UVA): 14 µg/mL (≈ 29.2 µM); Mean MPE ([1]; mouse, 24 h): −0.011; Mean PIF ([1]; mouse, 24 h): 0.8
C#Cc1cccc(Nc2ncnc3cc(OCCOC)c(OCCOC)cc23)c1 [Erlotinib, erlotinib, reference compound]					phospho ERK compared to HKGS treated cells [2]: decreased
N[C@@H](Cc1c[nH]cn1)C(=O)O [Histidine, histidine]		0.036	> 1000	1	IC50 ([1]; 0.3 h, UVA 2.5 J/cm2 over 18 min, Neutral Red, read-out: Cell Viability IC50 Plus UVA): > 1000 µg/mL
CN(C)CCCN1c2ccccc2Sc2ccc(Cl)cc21 [Chloropromazine, chlorpromazine]	Phototoxic	0.477	31 (≈ 97.2 µM)	31.6	
